Measured values taken from patent US6548638B2, “Peptoid and nonpeptoid containing α-keto oxadiazoles as serine protease inhibitors” (Cortech, Inc., priority 1998, dated 2003).

Key:
[1] = target: T1, HNE (elastase derived from human sputum, HSE) (Homo sapiens, UniProt P08246); assay: In vitro inhibition of elastase (rate assay, N-methoxysuccinyl-Ala-Ala-Pro-Val-p-nitroaniline substrate); format: biochemical; settings: inhibition activity against HNE; IC50 by log-logit method converted to K1 by Dixson plot; pH 8.0, 37° C.
T1 construct: The elastase used in the protocol was derived from human sputum (HSE); purchased Elastin Product Co., Inc, Missouri, USA SE-563; host or cells: human sputum (natural source)
T1 sequence (P08246 30-267): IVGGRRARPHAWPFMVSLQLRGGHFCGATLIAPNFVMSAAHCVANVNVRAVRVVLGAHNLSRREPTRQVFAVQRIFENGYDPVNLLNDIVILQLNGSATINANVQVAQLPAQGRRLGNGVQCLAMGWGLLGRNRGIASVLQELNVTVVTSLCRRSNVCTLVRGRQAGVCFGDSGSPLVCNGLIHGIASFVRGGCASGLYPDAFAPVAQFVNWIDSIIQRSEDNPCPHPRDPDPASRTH

[2] = system: elastase activity in whole blood; assay: Ex vivo inhibition of elastase (whole blood stimulated with opsonized zymosan, after oral administration); format: in vivo; settings: blood sampled 60 minutes after administration, 24 hour fasted animal; for Percent Inhibition at Indicated Dosage, 3 mg/kg: 3 mg/kg oral; for Percent Inhibition at Indicated Dosage, 10 mg/kg: 10 mg/kg oral; for Percent Inhibition at Indicated Dosage, 30 mg/kg: 30 mg/kg oral
Protocol: Sixty (60) minutes after the oral administration of an inhibitor with an appropriate vehicle, a blood sample (0.9 ml) is collected through the abdominal aorta by a syringe containing 0.1 ml of a 3.8% sodium citrate solution.
The blood sample is processed as follows: 60 μl of (final 0.1-1 mg/ml) a suspended solution of opsonized zymosan in Hank's buffer is added to the preincubated whole blood (540 μl) for 5 minutes at 37° C., and the resulting mixture is incubated for 30 minutes at the same temperature. The reaction is terminated by immersing the test tube into ice water. The reaction mixture is then centrifuged at 3,000 rpm for 10 minutes at 4° C. Twenty (20) μl of each of the resulting supernatant (the Sample) is measured for elastase activity.
The mixture consisting of the following components is incubated for 24 hours at 37° C., and then optical density is measured at 405 nm:
A test sample mixed with 1-methyl-2-pyrrolidone instead of the substrate is regarded as Substrate (−). A test sample mixed with saline instead of the Sample is regarded as Blank. The remaining elastase activity in the Sample is calculated according to the following: […]
optical density of Substrate (+)−(optical density of Substrate (−)+optical density of Blank)
as a total production of p-nitroaniline over 24 hours based on a standard curve for the amount of p-nitroaniline.
An average activity is calculated based on the test sample of 5-6 animals. An agent at 3, 10 or 30 mg/kg is orally given by a forced administration to a 24 hour fasted animal at 60 minutes before the blood sampling. Optical density is measured by SPECTRA MAX 250 (Molecular Devices).

SMILES	Ki [1]	Percent Inhibition at Indicated Dosage, 3 mg/kg [2]	Percent Inhibition at Indicated Dosage, 10 mg/kg [2]	Percent Inhibition at Indicated Dosage, 30 mg/kg [2]
CC(C)C(NC(=O)Cn1c(-c2ccccc2)nccc1=O)C(=O)c1nnc(C(C)(C)c2ccc3c(c2)OCO3)o1 (racemic) [Example 9, 2-[6-Oxo-2-phenyl-1,6-dihydro-1-pyrimidinyl]-N-[1-(2-[5-(α,α-dimethyl-3,4-methylenedioxybenzyl)-1,3,4-oxadiazolyl]carbonyl)-2-(R,S)-methylpropyl]acetamide]	0.34 nM			
CC(C)C(NC(=O)Cn1c(-c2ccc(F)cc2)nccc1=O)C(=O)c1nnc(C(C)(C)c2ccc3c(c2)OCO3)o1 (racemic) [Example 10, 2-[6-Oxo-2-(4-fluorophenyl)-1,6-dihydro-1-pyrimidinyl]-N-[1-(2-[5-(α,α-dimethyl-3,4-methylenedioxybenzyl)-1,3,4-oxadiazolyl]carbonyl)-2-(R,S)-methylpropyl]acetamide]	1.53 nM			
COC(=O)NC(C(=O)N1CCCC1C(=O)NC(C(=O)c1nnc(C(C)(C)c2ccccc2)o1)C(C)C)C(C)C [Example 2, Methyloxycarbonyl-L-valyl-N-[1-(2-[5-(α,α-dimethylbenzyl)oxadiazolyl]carbonyl)-2-(S)-methylpropyl]-L-prolinamide]	1.32 nM	7%	9%	62%
CC(C)C(NC(=O)Cn1c(-c2ccc(F)cc2)nccc1=O)C(=O)c1nnc(C(C)(C)c2ccccc2)o1 (racemic) [Example 11, 2-[6-Oxo-2-(4-fluorophenyl)-1,6-dihydro-1-pyrimidinyl]-N-[1-(2-[5-(α,α-dimethylbenzyl)-1,3,4-oxadiazolyl]carbonyl)-2-(R,S)-methylpropyl]acetamide]	5.34 nM			
COC(=O)NC(C(=O)N1CCCC1C(=O)NC(C(=O)c1nnc(C(C)(C)C)o1)C(C)C)C(C)C [Example 1, Methyloxycarbonyl-L-valyl-N-[1-(2-[5-(tert-butyl)oxadiazolyl]carbonyl)-2-(S)-methylpropyl]-L-prolinamide]	3 nM			
COC(=O)NC(C(=O)N1CCCC1C(=O)NC(C(=O)c1nnc(C(C)(C)c2ccc3c(c2)OCO3)o1)C(C)C)C(C)C [Example 3, Methyloxycarbonyl-L-valyl-N-[1-(2-[5-(α,α-dimethyl-3,4-methylenedioxybenzyl)-1,3,4-oxadiazolyl]carbonyl)-2-(S)-methylpropyl]-L-prolinamide]	0.24 nM	44%	69%	99%
CC(C)C(NC(=O)Cn1c(-c2ccccc2)nccc1=O)C(=O)c1nnc(C(C)(C)c2ccccc2)o1 (racemic) [Example 12, 2-[6-Oxo-2-phenyl-1,6-dihydro-1-pyrimidinyl]-N-[1-(2-[5-(α,α-dimethylbenzyl)-1,3,4-oxadiazolyl]carbonyl)-2-(R,S)-methylpropyl]acetamide]	1.83 nM			
CC(C)C(NC(=O)Cn1c(-c2ccccc2)ncc(N)c1=O)C(=O)c1nnc(C(C)(C)c2ccc3c(c2)OCO3)o1 (racemic) [Example 8, 2-[5-Amino-6-oxo-2-phenyl-1,6-dihydro-1-pyrimidinyl]-N-[1-(2-[5-(α,α-dimethyl-3,4methylenedioxybenzyl)-1,3,4-oxadiazolyl]carbonyl)-2-(R,S)-methylpropyl]acetamide]	1.06 nM			
